What was measured:
opioid δ receptor = target: T1, opioid δ receptor (Rattus norvegicus, UniProt P33533); assay: Opioid receptor binding assay, [3H]-DADLE, rat cerebrum membrane fraction
T1 construct: Four hundred and eighty microliters of the rat cerebrum membrane fraction; from tissue; host or cells: rat (Slc:SD) cerebrum, crude membrane fraction

[1] = test system: retching and emesis induced by morphine; assay: Effect on the retching and emesis induced by morphine in ferrets; type: in vivo; details: for Duration / Occurrence times / Latent period: mean ± SE; for Latent period: no symptom = 30 min; for Number of individuals with the symptom/Number of cases: morphine 0.6 mg/kg s.c., 30 min observation
Description: About 30 minutes after feeding, ferrets were placed into observation cages and administered with the test compound. The test compound was dissolved into 15% Solutol (Registered trademark) HS15 containing 5% of N,N-dimethylacetamide and 5% of N-methyl-glucamine, and administered at 5 mg/kg. Thirty minutes after administration of the test compound solution, morphine at 0.6 mg/kg was subcutaneously administered in a solution volume of 1 mL/kg, and the retching and emesis symptoms were visually observed for 30 minutes after administration of morphine.
The frequency, latency (the period from the administration of morphine to the initial occurrence of emetic symptom) and duration (the period from the initial emesis to the final emesis) of retching (rhythmical contraction of abdomen), emesis (emetic behavior to discharge the vomit or similar behavior) and both the symptoms were tabulated.
Meanwhile, the latency of a case showing no emesis was assumed to be 30 minutes that were the longest time of observation, and a duration of less than 1 minute after the occurrence of emesis was expressed as 1 minute for the sake of convenience.

[2] = Retching + emesis, I-1 0.05 mg/kg
[3] = Retching + emesis, I-1 0.5 mg/kg

T1 sequence (P33533 whole entry): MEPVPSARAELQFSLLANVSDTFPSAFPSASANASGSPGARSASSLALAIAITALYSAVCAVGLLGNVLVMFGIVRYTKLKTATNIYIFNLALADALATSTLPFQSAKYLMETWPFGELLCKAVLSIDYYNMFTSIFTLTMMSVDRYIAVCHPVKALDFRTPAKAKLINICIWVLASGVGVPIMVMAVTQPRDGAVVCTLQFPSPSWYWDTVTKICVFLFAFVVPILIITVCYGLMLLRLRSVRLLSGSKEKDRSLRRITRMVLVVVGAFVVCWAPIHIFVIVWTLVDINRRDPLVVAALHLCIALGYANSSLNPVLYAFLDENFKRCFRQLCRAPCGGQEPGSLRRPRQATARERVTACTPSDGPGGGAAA

## CC(=O)OC(C)OC(=O)c1ccc2c3c([nH]c2c1)[C@@H]1Oc2c(O)ccc4c2[C@@]12CCN(CC1CC1)[C@H](C4)[C@]2(O)C3 (stereo partly drawn) [Compound I-8]
Opioid δ receptor
  Ki: 1.38 nM

## CCCC(=O)OCOC(=O)c1ccc2c3c([nH]c2c1)[C@@H]1Oc2c(O)ccc4c2[C@@]12CCN(CC1CC1)[C@H](C4)[C@]2(O)C3 [Compound I-4]
Opioid δ receptor
  Ki: 1.14 nM

## O=C(O)c1ccc2c3c([nH]c2c1)[C@@H]1Oc2c(O)ccc4c2[C@@]12CCN(CC1CC1)[C@H](C4)[C@]2(O)C3 [Compound I-1, 17-cyclopropylmethyl-6,7-didehydro-4,5α-epoxy-3,14β-dihydroxy-6′-carboxy-6,7-2′,3′-indolomorphinan]
[1]; Emesis, I-1 0.05 mg/kg
  Duration: 0 ± 0 min
  Occurrence times: 0 ± 0
  Latent period: 30 ± 0 min
  Number of individuals with the symptom/Number of cases: 0/6
[1]; Emesis, I-1 0.5 mg/kg
  Duration: 0 ± 0 min
  Occurrence times: 0 ± 0
  Latent period: 30 ± 0 min
  Number of individuals with the symptom/Number of cases: 0/6
[1]; Emesis, I-1 5 mg/kg
  Duration: 0 ± 0 min
  Occurrence times: 0 ± 0
  Latent period: 30 ± 0 min
  Number of individuals with the symptom/Number of cases: 0/6
[1]; [2]
  Duration: 0 ± 0 min
  Occurrence times: 0 ± 0
  Latent period: 30 ± 0 min
  Number of individuals with the symptom/Number of cases: 0/6
[1]; [3]
  Duration: 0 ± 0 min
  Occurrence times: 0 ± 0
  Latent period: 30 ± 0 min
  Number of individuals with the symptom/Number of cases: 0/6
[1]; Retching + emesis, I-1 5 mg/kg
  Duration: 0 ± 0 min
  Occurrence times: 0 ± 0
  Latent period: 30 ± 0 min
  Number of individuals with the symptom/Number of cases: 0/6
[1]; Retching, I-1 0.05 mg/kg
  Duration: 0 ± 0 min
  Occurrence times: 0 ± 0
  Latent period: 30 ± 0 min
  Number of individuals with the symptom/Number of cases: 0/6
[1]; Retching, I-1 0.5 mg/kg
  Duration: 0 ± 0 min
  Occurrence times: 0 ± 0
  Latent period: 30 ± 0 min
  Number of individuals with the symptom/Number of cases: 0/6
[1]; Retching, I-1 5 mg/kg
  Duration: 0 ± 0 min
  Occurrence times: 0 ± 0
  Latent period: 30 ± 0 min
  Number of individuals with the symptom/Number of cases: 0/6
Opioid δ receptor
  Ki: 0.62 nM

## CC(OC(=O)c1ccc2c3c([nH]c2c1)[C@@H]1Oc2c(O)ccc4c2[C@@]12CCN(CC1CC1)[C@H](C4)[C@]2(O)C3)OC(=O)C(C)C (stereo partly drawn) [Compound I-9]
Opioid δ receptor
  Ki: 1.25 nM

## CC(C)(C)C(=O)OCOC(=O)c1ccc2c3c([nH]c2c1)[C@@H]1Oc2c(O)ccc4c2[C@@]12CCN(CC1CC1)[C@H](C4)[C@]2(O)C3 [Compound I-2]
Opioid δ receptor
  Ki: 1.7 nM

## Cc1oc(=O)oc1COC(=O)c1ccc2c3c([nH]c2c1)[C@@H]1Oc2c(O)ccc4c2[C@@]12CCN(CC1CC1)[C@H](C4)[C@]2(O)C3 [Compound I-3]
Opioid δ receptor
  Ki: 1.06 nM

Source: US20080227803A1, “Indolomorphinan Derivative Having Carboxy in 6'-Position” (SHIOONOGI & CO., LTD., a legal entity of Japan, priority 2004, published 2008)
